# Assay results: US12240853B2, “Compounds useful in HIV therapy” (GlaxoSmithKline Intellectual Property (No.2) Limited, priority 2019, dated 2025)
# Like-named read-outs stand apart in the source and are kept apart here.
# Experiment: Example 18 cynomolgus monkey PK study (SC and IM)
# Format: in vivo, cynomolgus monkeys
# Conditions: male, cynomolgus monkey, plasma, read-out: Example 18 plasma concentrations
# Text: Example 18 referenced herein was made in accordance with Synthesis B. Six male cynomolgus monkeys (+1 spare) were selected from the Testing Facility's colony of non-naïve animals. The animals were assigned to the study based on acceptable health as determined by a Testing Facility veterinarian. Six animals were selected and placed into two groups of three animals each. Fasting of the animals before or after dosing was not required.
# […] […] The animals were manually restrained for dosing and were not sedated. The dose sites were clipped of hair and wiped with alcohol before dosing. All dosing was performed as detailed in the study protocol and was completed without incident.
# Blood samples were collected from the study animals as detailed in the sample collection Table 39 below.
# Blood samples were collected by venipuncture of a cephalic vein. For PK, blood was transferred to a blood collection tube containing NaF/Na2EDTA anticoagulant, mixed by inversion, and maintained on wet ice until processing. The blood samples were centrifuged at 2200×g for 10 minutes at 5° C. to isolate plasma. The resulting plasma samples were transferred to individual polypropylene tubes in a 96-well plate format and immediately placed on dry ice until storage at nominally −20° C. prior to shipment for analysis.
# The PK plasma samples were analyzed approximately every two weeks by the Testing Facility to determine the concentration of Example 18 (prodrug) and parent using an LC-MS/MS Research Grade Assay (RGA-1) with sensitivity to 0.1 ng/mL. Following interim review of sample analysis data, analysis for Example 18 (prodrug) was discontinued after the Day 57 sample collections. The bioanalytical report and sample concentration data are presented in Tables 40 and 41, and mean concentration-time profiles are shown in FIGS. 29 and 30
# [1] = intramuscular, 20 mg/kg equivalent of EFdA, IM 20 mg/kg equivalent of EFdA, Monkey 2001
# [2] = intramuscular, 20 mg/kg equivalent of EFdA, IM 20 mg/kg equivalent of EFdA, Monkey 2002
# [3] = intramuscular, 20 mg/kg equivalent of EFdA, IM 20 mg/kg equivalent of EFdA, Monkey 2003
# [4] = sc, 20 mg/kg, SC 20 mg/kg equivalent of EFdA, Mean
# [5] = sc, 20 mg/kg, SC 20 mg/kg equivalent of EFdA, Monkey 1001
# [6] = sc, 20 mg/kg, SC 20 mg/kg equivalent of EFdA, Monkey 1002 (column 3)
# [7] = sc, 20 mg/kg, SC 20 mg/kg equivalent of EFdA, Monkey 1002
smiles,measurement,setting,value
"C#C[C@]1(COC(=O)CCCCCCCCC)O[C@@H](n2cnc3c(N)nc(F)nc32)C[C@@H]1OC(=O)CCCCCCCCC [Example 18, (2R,3S,5R)-5-(6-amino-2-fluoro-9H-purin-9-yl)-2-((decanoyloxy)methyl)-2-ethynyltetrahydrofuran-3-yl Decanoate]",concentration at 0.208 days,[1],51.3 ng/mL
same,concentration at 0.292 days,[1],30.1 ng/mL
same,concentration at 1 days,[1],6.89 ng/mL
same,concentration at 2 days,[1],0.652 ng/mL
same,concentration at 3 days,[1],0.379 ng/mL
same,concentration at 8 days,[1],0.203 ng/mL
same,concentration at 10 days,[1],0.156 ng/mL
same,concentration at 17 days,[1],0.135 ng/mL
same,concentration at 19 days,[1],0.119 ng/mL
same,concentration at 22 days,[1],0.146 ng/mL
same,concentration at 29 days,[1],0.155 ng/mL
same,concentration at 0.021 days,[2],40.2 ng/mL
same,concentration at 0.042 days,[2],82.6 ng/mL
same,concentration at 0.125 days,[2],363 ng/mL
same,concentration at 0.208 days,[2],692 ng/mL
same,concentration at 0.292 days,[2],821 ng/mL
same,concentration at 1 days,[2],110 ng/mL
same,concentration at 2 days,[2],0.674 ng/mL
same,concentration at 3 days,[2],0.533 ng/mL
same,concentration at 8 days,[2],0.248 ng/mL
same,concentration at 10 days,[2],0.251 ng/mL
same,concentration at 17 days,[2],0.16 ng/mL
same,concentration at 19 days,[2],0.149 ng/mL
same,concentration at 22 days,[2],0.114 ng/mL
same,concentration at 25 days,[2],0.125 ng/mL
same,concentration at 29 days,[2],0.135 ng/mL
same,concentration at 0.021 days,[3],1.93 ng/mL
same,concentration at 0.042 days,[3],0.79 ng/mL
same,concentration at 0.125 days,[3],3.31 ng/mL
same,concentration at 0.208 days,[3],5.27 ng/mL
same,concentration at 0.292 days,[3],6.42 ng/mL
same,concentration at 1 days,[3],2.08 ng/mL
same,concentration at 2 days,[3],0.387 ng/mL
same,concentration at 3 days,[3],0.63 ng/mL
same,concentration at 8 days,[3],0.171 ng/mL
same,concentration at 10 days,[3],0.19 ng/mL
same,concentration at 17 days,[3],0.154 ng/mL
same,concentration at 19 days,[3],0.129 ng/mL
same,concentration at 22 days,[3],0.113 ng/mL
same,concentration at 25 days,[3],0.151 ng/mL
same,concentration at 46 days,"intramuscular, 20 mg/kg equivalent of EFdA, IM 20 mg/kg equivalent of EFdA, Monkey 2003, 46 days",0.105 ng/mL
same,concentration at 0.021 days,[4],0.235 ng/mL
same,concentration at 0.042 days,[4],0.905 ng/mL
same,concentration at 0.125 days,[4],3.94 ng/mL
same,concentration at 0.208 days,[4],4.95 ng/mL
same,concentration at 0.292 days,[4],4.53 ng/mL
same,concentration at 1 days,[4],1.12 ng/mL
same,concentration at 2 days,[4],0.405 ng/mL
same,concentration at 3 days,[4],0.312 ng/mL
same,concentration at 8 days,[4],0.117 ng/mL
same,concentration at 10 days,[4],129 ng/mL
same,concentration at 0.021 days,[5],49.4 ng/mL
same,concentration at 0.042 days,[5],70.3 ng/mL
same,concentration at 0.125 days,[5],149 ng/mL
same,concentration at 0.208 days,[5],92.8 ng/mL
same,concentration at 0.292 days,[5],146 ng/mL
same,concentration at 1 days,[5],36.5 ng/mL
same,concentration at 2 days,[5],0.734 ng/mL
same,concentration at 3 days,[5],0.694 ng/mL
same,concentration at 10 days,[5],0.146 ng/mL
same,concentration at 0.021 days,[6],0.133 ng/mL
same,concentration at 0.042 days,[6],0.179 ng/mL
same,concentration at 0.125 days,[6],2.29 ng/mL
same,concentration at 0.208 days,[6],1.91 ng/mL
same,concentration at 0.292 days,[6],2.38 ng/mL
same,concentration at 1 days,[6],0.641 ng/mL
same,concentration at 2 days,[6],0.579 ng/mL
same,concentration at 3 days,[6],0.396 ng/mL
same,concentration at 8 days,[6],0.131 ng/mL
same,concentration at 10 days,[6],0.146 ng/mL
same,concentration at 0.021 days,[7],0.337 ng/mL
same,concentration at 0.042 days,[7],1.63 ng/mL
same,concentration at 0.125 days,[7],5.59 ng/mL
same,concentration at 0.208 days,[7],7.99 ng/mL
same,concentration at 0.292 days,[7],6.67 ng/mL
same,concentration at 1 days,[7],1.6 ng/mL
same,concentration at 2 days,[7],0.23 ng/mL
same,concentration at 3 days,[7],0.228 ng/mL
same,concentration at 8 days,[7],0.102 ng/mL
same,concentration at 10 days,[7],0.111 ng/mL
